Results on 4 compounds are retold here after US8653080B2, “Methods for screening and compounds that protect against amyloid diseases” (Salk Institute for Biological Studies, priority 2009, dated 2014).

The subject of assay [1] is CL660 animals. Description: vGFP scoring in CL660 animals fed bacteria expressing RNAi (daf-16, hsf-1) plus compound. In kind it is in vivo, C. elegans. Conditions: for effect of DAF-16 knockdown on the beneficial effects (vGFP) of the compound: daf-16 RNAi, FIG. 19; for effect of HSF-1 knockdown on vGFP expression with the compound: hsf-1 RNAi, FIG. 20. The protocol:
(§1) Animals were grown at 15° C. until adulthood. Gravid adults were suspended and bleached; eggs were resuspended in M9 salt solution and allowed to hatch for 24 hours at 15° C. Compounds were added to S-media at 100 μM concentration and then aliquoted to 48-well Costar plates at 400 μL per well. As a control, DMSO was added to S-media at 0.1% concentration. L1 hatched larvae were added to each well at 50-100 animals per 25 μL aliquot. Worms were thus grown in liquid media until reaching the third larval stage (L3) at 15° C. At L3 worms were shifted to 25° C. to begin biogenesis of Aβ protein. Observation began 24 hours later when the animals have reached adulthood (timepoint=0 hrs). Animals were scored as either with or without vGFP signal, regardless of intensity level.
In order to determine a pathway the compounds are acting upon, experiments were performed with genetics already known to be involved in the handling of Aβ aggregation. The insulin/IGF-1 pathway plays a role in the handling of cellular stress. DAF-2 is the sole insulin/IGF-1 receptor in C. elegans and depletion of DAF-2 results in long-lived, stress resistant worms. The Aβ protein applies a biochemical stress to cellular activity as shown by the hsp-16.2 activity in response to its presence. […] DAF-16 encodes a FOXO transcription factor and is required for the lifepan extension in worms fed daf-2RNAi. HSF-1 is also required for the lifespan extension seen in worms fed daf-2 RNAi.
CL660 animals were fed bacteria expressing RNAi suspended in S-basal solution.

For assay [2], the system named is CL660 animals. Briefly: vGFP signal scoring in transgenic C. elegans (CL660) expressing Aβ, liquid culture. In kind it is in vivo. The following applies: compounds at 100 μM in S-media; 36 hours into adulthood; FIG. 18; control DMSO 0.1%. Here is the method: Identification of compounds that inhibit aggregation-mediated proteotoxicity was carried out using transgenic C. elegans strain, which expresses human Aβ1-42 within body wall muscles under the direction of the myo-3 promoter cause by induction at 25 C and inhibition of smg-1 activity. This induction in the absence of an effective inhibitor causes association of a heat shock protein-GFP fusion construct with the Aβ1-42 (a schematic of this model is shown in FIG. 2).
Twenty-four hours after placing the L1-stage worms into the fridge, the plates were removed for fileting. Fifteen to twenty-five worms each were placed into wells of a microtiter plate containing compounds to be tested in an aqueous environment or a corresponding control. Only worms that were moving normally were filleted. The worms were incubated for approximately 36 hours or until L3 stage was reached. Aβ toxicity was then generated by growing the worms at 25 C for 18 hours which effects smg-1 activity. […] Typically the worms settled to the bottom of the well and were counted manually.
as §1

On to `CCC(CC)N1C(=O)[C@H](COCc2ccccc2)NC(=O)C1C(=O)NCc1ccccc1` (some centres unmarked) [F7], for which, in the assay with CL660 animals [1], the “effect of DAF-16 knockdown on the beneficial effects (vGFP) of the compound” value is recorded as “partially suppressed the beneficial effects” and the “effect of HSF-1 knockdown on vGFP expression with the compound” value is “no effect on vGFP expression”. Besides, the “vGFP in CL660 animals compared to control” value (“vGFP … compared to control” below) in the assay with CL660 animals [2] is on record as “reduced vGFP”.
Consider `O=C(NCc1ccccc1)C1C(=O)N[C@@H](COCc2ccccc2)C(=O)N1Cc1cccnc1` (some centres unmarked) [E7], for which, in the assay on CL660 animals [2], the “vGFP … compared to control” value is listed as “reduced vGFP”.
For `CCCCN1C(=O)[C@H](COCc2ccccc2)NC(=O)C1C(=O)NCc1ccccc1` (some centres unmarked) [D7], in the assay with CL660 animals [1], the “effect of DAF-16 knockdown on the beneficial effects (vGFP) of the compound” value is “partially suppressed the beneficial effects” and the “effect of HSF-1 knockdown on vGFP expression with the compound” value was “no effect on vGFP expression”. In addition, in the assay with CL660 animals [2], the “vGFP … compared to control” value is given as “reduced vGFP”.
For `O=C(NCc1ccccc1)C1C(=O)N[C@@H](COCc2ccccc2)C(=O)N1C1CCCC1` (some centres unmarked) [H7], the “vGFP … compared to control” value with CL660 animals [2] is “reduced vGFP”.
